# Measurements taken from paper PMC2151593 (The Journal of General Physiology, 2006).
# pKi: −log10 of the molar value.
# Experiments:
# Shaker T449F = Shaker T449F (Drosophila melanogaster, UniProt P08510, C301S/C308S/DEL6-46/T449F); type: cell-based
# [1] = target: T1, Shaker Thr449 (wild type) (Drosophila melanogaster, UniProt P08510, C301S/C308S/DEL6-46); assay: Extracellular TEA block of voltage-clamped potassium currents, Shaker with Thr; type: cell-based; details: Thr at 449 relative to Phe; ΔΔG = RT ln(K i,X/K i,Phe)
# Shaker T449X, X = 4F-Phe = type: cell-based; details: 4F-Phe at 449 relative to Phe; ΔΔG = RT ln(K i,X/K i,Phe)
# [2] = test system: Shaker T449X, X = 3,5F-Phe; type: cell-based; details: 3,5F-Phe at 449 relative to Phe; ΔΔG = RT ln(K i,X/K i,Phe)
# [3] = test system: Shaker T449X, X = 3,4,5F-Phe; type: cell-based; details: 3,4,5F-Phe at 449 relative to Phe; ΔΔG = RT ln(K i,X/K i,Phe)
# Shaker T449X, X = Cha = type: cell-based
# [4] = test system: Shaker, fluorinated derivatives of Phe449; assay: Voltage dependence of TEA block, all fluorinated derivatives of Phe449; type: cell-based
# KcsA [5] = assay: TEA block of KcsA; type: biochemical, Streptomyces lividans; details: higher than for Shaker T449F
# [6] = target: T1, Shaker Thr449 (wild type); details: ref Heginbotham and MacKinnon, 1992; cited from earlier work
# Shaker Tyr449 = details: ref Heginbotham and MacKinnon, 1992; cited from earlier work
# KcsA [7] = details: read-out: K i for TEA block; KcsA (Tyr82); ref Heginbotham et al., 1999; cited from earlier work
# [8] = benzene compared with hexafluorobenzene; ref Leo et al., 1971; cited from earlier work
smiles,measurement,setting,value
"CC[As+](CC)(CC)CC [TEAs, tetraethylarsonium]",factor by which TEAs is a weaker blocker (larger inhibitory constant) than TEA,"Shaker T449F; Shaker T449F, unpublished data",~25 fold
"CC[N+](CC)(CC)CC [TEA, tetraethylammonium]",ΔΔG,"Shaker T449F; Phe at 449 (reference), ΔΔG = RT ln(K i,X/K i,Phe), RT 0.58 kcal/mol",0 kcal/mol
same,ΔΔG,[1],2.58 kcal/mol
same,ΔΔG,"Shaker T449X, X = 4F-Phe",1.23 kcal/mol
same,ΔΔG,[2],2.78 kcal/mol
same,ΔΔG,[3],3.54 kcal/mol
same,ΔΔG,"Shaker T449X, X = Cha; Cha at 449 relative to Phe, ΔΔG = RT ln(K i,X/K i,Phe)",3.75 kcal/mol
same,effect on TEA affinity (decrease relative to Phe),"Shaker T449X, X = Cha; nonaromatic residue Cha at 449",640 fold
same,voltage dependence of block,[4],2–8%
same,K i for TEA block of KcsA relative to Shaker T449F,KcsA [5],~10 fold
same,fraction of the transmembrane electric field sensed by TEA,[6],19%
same,fraction of the transmembrane electric field sensed by TEA,Shaker Tyr449,4%
same,pKi,KcsA [7],2.49
Fc1c(F)c(F)c(F)c(F)c1F [hexafluorobenzene],logP (water/octanol partition),[8],nearly identical
